Experimental data taken from patent publication US20150368248A1, “2-SUBSTITUTED-6-BIARYLMETHYLAMINO-9-CYCLOPENTYL-9H-PURINE DERIVATIVES, USE THEREOF AS MEDICAMENTS, AND PHARMACEUTICAL COMPOSITIONS” (UNIVERZITA PALACKEHO V OLOMOUCI, priority 2013, published 2015).

Tests used:
PARP-1 = assay: Immunoblot analysis of PARP cleavage; format: cell-based, human
Procedure: (§1) Effect of BP14 on cell apoptosis was complemented by immunoblot analysis of selected apoptotic proteins. For immunoblotting, cell were detached with rubber policeman and washed three times with ice-cold PBS and lysed in buffer (50 mM Tris, pH 7.4, 250 mM NaCl, 5 mM EDTA, 50 mM NaF, 1 mM Na3VO4, 1% Nonidet P40) containing mixture of protease and phosphatase inhibitors (Sigma-Aldrich, USA). 20 μg of total proteins were separated by SDS-polyacrylamide gel electrophoresis (SDS-PAGE) and transferred onto nitrocellulose membranes. Membranes were blocked in 5% milk and 0.1% Tween 20 in PBS and probed overnight with specific antibodies for PARP-1 (clone F-2; Santa Cruz Biotechnology, USA), Mcl-1 (S-19; Santa Cruz Biotechnology, USA) and β-actin (C-4, Santa Cruz Biotechnology, USA). All primary antibodies were diluted in PBS containing 5% powdered milk; 0.1% Tween 20. Peroxidase conjugated rabbit anti-mouse immunoglobulin or porcine anti-rabbit immunoglobulin antisera (DAKO, Denmark) were used as the secondary antibodies and visualised with ECL reagents (Amersham-Pharmacia, Little Chalfont, UK).
Immunoblotting was performed as described previously (36). The primary antibodies were used at the dilutions: anti-phospho-Ser5 RNA Pol II (CDK7; Bethyl Laboratories, Montgomery, USA), 1:1,000; anti-phospho-Ser2 RNA Pol II (CDK9; Bethyl Laboratories, Montgomery, USA), 1:1,000; anti-RNA Pol II (Santa Cruz Biotechnology, Santa Cruz, USA), 1:1,000; anti-PARP (Cell Signaling Technology, Beverly, USA), 1:1,000; anti-β-actin (Sigma, St. Louis, USA), 1:2.500. Horseradish peroxidase-conjugated secondary antibodies (Calbiochem, LaJolla, USA) were used at dilutions of 1:10,000.

HUVEC cells = assay: Tube formation assay on Matrigel; format: cell-based, human; conditions: 24 h treatment
Procedure: For an evaluation of tube formation, HUVEC cells in endothelial cell growth medium (ECGM) containing tested compound were seeded onto Matrigel® (BD) coated ibidi angiogenesis slides (15-well, ibidi GmbH, Munich, Germany). After 24 h, images were taken using the Olympus BX50 miscoscope with DP Controller system. Evaluation of formation of tubes was expressed as a number of tubes and number of nodes of treated cells compared with untreated control using specific “in house” software.

HepG2 and PLC cells = assay: Flow cytometry of cellular DNA content; format: cell-based, human; conditions: 24 hours
Procedure: The analysis of cellular DNA content was performed with a multicolor BD LSRFortessa cell analyzer (Becton Dickinson, Franklin Lakes, USA). Prior to the cytofluorometric measurement, about 5×10^5 cells were washed with phosphate buffered saline (PBS), fixed in 70% ethanol, washed again with PBS and treated with 100 μg RNAse A/50 μg propidium iodide per ml for 10 minutes to stain cellular DNA. The percentage of cells in the various cell cycle positions were calculated using a software package from the same manufacturer.

DEN-induced hepatoma = assay: Diethylnitrosamine-induced liver cancer and drug intervention; format: in vivo, C57BL/6J mice; conditions: 3 cycles of 10 days, i.p., breaks of 7 days
Procedure: To initiate tumor development in the liver, 14-day-old C57BL/6J mice were intraperitoneally injected with a single dose of diethylnitrosamine (DEN, 25 mg/kg). After 8 month, pharmacological intervention was administrated in DEN-induced mice by 3 cycles of treatment with compounds for 10 days and a release from compounds for 7 days between the cycles. Either 5 mg/kg BA-12 or 1 mg/kg BP-14 was intraperitoneally injected in 100 μl of 0.01% DMSO. Control mice obtained 100 μl solvent only. Thereafter, mice were sacrificed and livers were fixed in 4% formaldehyde. Two researchers independently scored the diameters of neoplasia that could be monitored at the liver surface. Cancerous nodules with a diameter of up to 1 cm, covering more than 97% of all visible hepatomas, were included into the analysis. […] All animal experiments were performed according to the Austrian guidelines for animal care and protection.

CDK7/cyclin H/MAT1 = target: T1, CDK7/cyclin H/MAT1 (Homo sapiens, UniProt P50613); assay: Kinase inhibition assay, recombinant kinase, [γ-33P]ATP; format: biochemical; conditions: read-out: Residual kinase activity, CDK7; for remaining activity at 0.1 µM: 100 nM; for remaining activity at 1 µM: 1000 nM
T1 construct: purchased ProQinase GmbH (Freiburg, Germany)
T1 sequence (P50613 whole entry): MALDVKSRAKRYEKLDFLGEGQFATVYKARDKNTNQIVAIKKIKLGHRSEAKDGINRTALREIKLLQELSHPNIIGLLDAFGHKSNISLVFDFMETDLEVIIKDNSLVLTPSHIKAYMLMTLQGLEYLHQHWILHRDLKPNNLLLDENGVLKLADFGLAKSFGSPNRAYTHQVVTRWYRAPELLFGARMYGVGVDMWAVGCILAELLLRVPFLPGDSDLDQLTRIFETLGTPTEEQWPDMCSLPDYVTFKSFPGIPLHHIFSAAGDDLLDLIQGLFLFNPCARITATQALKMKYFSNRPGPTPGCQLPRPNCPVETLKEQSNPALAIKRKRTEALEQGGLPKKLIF
T1 sequence (P51946 whole entry partner): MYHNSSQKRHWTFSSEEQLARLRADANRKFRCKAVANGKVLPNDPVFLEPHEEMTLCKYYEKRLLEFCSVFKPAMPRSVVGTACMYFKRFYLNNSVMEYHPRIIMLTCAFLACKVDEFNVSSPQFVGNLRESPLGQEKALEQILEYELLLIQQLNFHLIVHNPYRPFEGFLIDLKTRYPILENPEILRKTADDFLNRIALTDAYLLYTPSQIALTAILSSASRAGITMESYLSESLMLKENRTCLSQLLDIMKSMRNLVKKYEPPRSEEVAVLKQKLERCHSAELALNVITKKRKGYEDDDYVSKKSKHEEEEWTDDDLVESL
T1 sequence (P51948 whole entry partner): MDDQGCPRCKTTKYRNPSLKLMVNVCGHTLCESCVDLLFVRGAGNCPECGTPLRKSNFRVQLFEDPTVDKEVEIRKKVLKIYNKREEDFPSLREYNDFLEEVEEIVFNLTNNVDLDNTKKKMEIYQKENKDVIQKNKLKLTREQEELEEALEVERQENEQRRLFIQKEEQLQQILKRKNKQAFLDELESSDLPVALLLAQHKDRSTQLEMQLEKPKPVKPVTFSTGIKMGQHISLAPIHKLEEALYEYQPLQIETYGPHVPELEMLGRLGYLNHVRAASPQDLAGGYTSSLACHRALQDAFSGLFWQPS

Mcl-1 = assay: Immunoblot analysis of anti-apoptotic protein Mcl-1; format: cell-based; conditions: Hep3B, PLC/PRF/5 and AKH3p cell lines, 24 hours
Procedure: as §1

Structure (SMILES)	remaining activity at 0.1 µM (CDK7/cyclin H/MAT1)	remaining activity at 1 µM (CDK7/cyclin H/MAT1)	also measured
NC1CCC(Nc2nc(NCc3ccc(-c4ccco4)nc3)c3ncn(C4CCCC4)c3n2)CC1 (stereo not drawn) [BP14, N^2-(4-amino-cyclohexyl)-9-cyclopentyl-N^6-(6-furan-2-yl-pyridin-3-ylmethyl)-9H-purine-2,6-diamine]	54.8%	23.9%	cleavage of PARP and p53 expression (PARP-1; 0.2 μM, HepG2 and p53-mutated PLC cells): induced cleavage of PARP and p53 expression; protein level of PARP-1 (PARP-1; HUH-7 cells, concentration up to 3xIC50): no effect; caspase-3-cleaved PARP-1 fragment at 89 kDa (PARP-1; Hep3B and AHK3p cells, 24 hours): markedly observed; PARP processing in PHHs (PARP-1; primary human hepatocytes): failed to induce PARP processing; branching points, number of tubes, total tube length and mean tube length (HUVEC cells): significantly reduced; cell cycle distribution (HepG2 and PLC cells): accumulation of HepG2 and PLC cells in the G2 phase; decrease of tumor nodules as compared to untreated control mice (DEN-induced hepatoma): 1.3 fold; level of anti-apoptotic protein Mcl-1 (Mcl-1): large dose-dependent decrease
COc1ccccc1-c1ccc(CNc2nc(NC3CCC(N)CC3)nc3c2ncn3C2CCCC2)cn1 (stereo not drawn) [BP18, N^2-(4-amino-cyclohexyl)-9-cyclopentyl-N^6-[6-(2-methoxy-phenyl)-pyridin-3-ylmethyl]-9H-purine-2,6-diamine]	54.1%	24.1%	
NC1CCC(Nc2nc(NCc3ccc(-c4cccc(F)c4)nc3)c3ncn(C4CCCC4)c3n2)CC1 (stereo not drawn) [BP19, N^2-(4-amino-cyclohexyl)-9-cyclopentyl-N^6-[6-(3-fluoro-phenyl)-pyridin-3-ylmethyl]-9H-purine-2,6-diamine]	55%	25%	
NC1CCC(Nc2nc(NCc3ccc(-c4ccccc4O)nc3)c3ncn(C4CCCC4)c3n2)CC1 (stereo not drawn) [BP20, N^2-(4-amino-cyclohexyl)-9-cyclopentyl-N^6-[6-(2-hydroxy-phenyl)-pyridin-3-ylmethyl]-9H-purine-2,6-diamine]	48%	17.3%	branching points, number of tubes, total tube length and mean tube length (HUVEC cells): significantly reduced
OC1CCC(Nc2nc(NCc3ccc(-c4ccco4)nc3)c3ncn(C4CCCC4)c3n2)CC1 (stereo not drawn) [BP21, 4-{9-cyclopentyl-6-[(6-furan-2-yl-pyridin-3-ylmethyl)-amino]-9H-purine-2-ylamino}-cyklohexanol]	72%	48.5%	
Nc1ccccc1-c1ccc(CNc2nc(NC3CCC(N)CC3)nc3c2ncn3C2CCCC2)cn1 (stereo not drawn) [BP22, N^2-(4-amino-cyclohexyl)-9-cyclopentyl-N^6-[6-(2-amino-phenyl)-pyridin-3-ylmethyl]-9H-purine-2,6-diamine]	70%	93.9%	
NC1CCC(Nc2nc(NCc3ccc(-c4cccs4)nc3)c3ncn(C4CCCC4)c3n2)CC1 (stereo not drawn) [BP30, N^2-(4-amino-cyclohexyl)-9-cyclopentyl-N^6-(6-thiophen-2-yl-pyridin-3-ylmethyl)-9H-purine-2,6-diamine]	47.7%	16.5%	
NC1CCC(Nc2nc(NCc3ccc(-c4ccsc4)nc3)c3ncn(C4CCCC4)c3n2)CC1 (stereo not drawn) [BP35, N^2-(4-amino-cyclohexyl)-9-cyclopentyl-N^6-(6-thiophen-3-yl-pyridin-3-ylmethyl)-9H-purine-2,6-diamine]	64.1%	33.5%	
NC1CCC(Nc2nc(NCc3ccc(-c4ccoc4)nc3)c3ncn(C4CCCC4)c3n2)CC1 (stereo not drawn) [BP36, N^2-(4-amino-cyclohexyl)-9-cyclopentyl-N^6-(6-furan-3-yl-pyridin-3-ylmethyl)-9H-purine-2,6-diamine]	49.1%	17.3%	
